{"source": "patent US9066960B2", "about": "“Use of the effective fraction of alkaloids from mulberry twig in preparing hypoglycemic agents” (INSTITUTE OF MATARIA MEDICA, CHINESE ACADEMY OF MEDICAL …, priority 2006, dated 2015)", "tested_on": "α-glucosidase", "test": "α-glucosidase inhibitor activity", "format": "biochemical", "data": [{"smiles": "OCC1NCC(O)C(O)C1O", "note": "(stereo not shown) [1-deoxynojirimycin]", "values": [{"measurement": "Activity among the alkaloids of the effective fraction", "result": "the activity is also the highest"}]}]}
